From patent publication US12649722B2, “Herbicidal cinnoline derivatives” (SYNGENTA CROP PROTECTION AG, priority 2020, dated 2026) come the findings set out here.

Holding throughout (type): in vivo
Assay [1] relates to Ipornoea hederacea (IPOHE). As to the kind of experiment: Pre-emergence Test, IPOHE. The conditions noted are these: 1000 g/ha, evaluated after 13 days.
Assay [2] deals with Setaria faberi (SETFA). Nature of the assay: Pre-emergence Test, SETFA. The conditions noted are these: 1000 g/ha, evaluated after 13 days.
In assay [3] the test system is Echinochloa crus-galli (ECHCG). As to the kind of experiment: Post-emergence Test, ECHCG. Conditions: sprayed after 8 days cultivation, 1000 g/ha, evaluated after 13 days. An outline of the steps: (§1)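 Pots sown with AMARE, SOLNI, SETFA, LOLPE, ECHCG, IPOHE, kept in glasshouse (24/16 °C, 14 h light, 65% humidity), sprayed at 1000 g/ha unless stated, in acetone/water 50:50 with 0.5% Tween 20. Damage scored after 13 days on a 0–5 scale (5=81–100%, 0=0%).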

For assay [4], the system named is ZEAMX. As to the kind of experiment: Post-emergence Test, ZEAMX. Conditions: sprayed after 8 days cultivation, 1000 g/ha, evaluated after 13 days.
In assay [5] the test system is ABUTH. Nature of the assay: Pre-emergence Test, ABUTH. The conditions noted are these: 1000 g/ha, evaluated after 13 days.
Assay [6] deals with Amaranthus retoflexus (AMARE). Nature of the assay: Post-emergence Test, AMARE. Conditions: sprayed after 8 days cultivation, 1000 g/ha, evaluated after 13 days. In short, it runs like this:
as §1

For assay [7], the system named is Setaria faberi (SETFA). As to the kind of experiment: Post-emergence Test, SETFA. Conditions: sprayed after 8 days cultivation, 1000 g/ha, evaluated after 13 days. An outline of the steps:
as §1

Assay [8] deals with Amaranthus retoflexus (AMARE). As to the kind of experiment: Pre-emergence Test, AMARE. Conditions: 1000 g/ha, evaluated after 13 days.
The subject of assay [9] is Ipornoea hederacea (IPOHE). As to the kind of experiment: Post-emergence Test, IPOHE. Conditions: sprayed after 8 days cultivation, 1000 g/ha, evaluated after 13 days. An outline of the steps: as §1
For assay [10], the system named is ZEAMX. Nature of the assay: Pre-emergence Test, ZEAMX. The conditions noted are these: 1000 g/ha, evaluated after 13 days.
The subject of assay [11] is Echinochloa crus-galli (ECHCG). Nature of the assay: Pre-emergence Test, ECHCG. Conditions: 1000 g/ha, evaluated after 13 days.
In assay [12] the test system is ABUTH. Nature of the assay: Post-emergence Test, ABUTH. The conditions noted are these: sprayed after 8 days cultivation, 1000 g/ha, evaluated after 13 days.

SMILES strings stand for the structures.

For the molecule `C=C(OCC)c1cccc2c1c(=O)c(C(=O)OCC)nn2-c1ccc(OC(F)(F)F)cc1` [Compound P29, ethyl 5-(1-ethoxyvinyl)-4-oxo-1-[4-(trifluoromethoxy)phenyl] cinnoline-3-carboxylate], the “percentage damage caused to the plant, IPOHE” value is on record as 1 (1=10-20%) in assay [1] and 0 (0=0%) in [9]. Moreover, the “percentage damage caused to the plant, SETFA” value in the assay on Setaria faberi (SETFA) [2] is given as 5 (5=81-100%); with Setaria faberi (SETFA) [7], 3 (3=41-60%). In addition, the “percentage damage caused to the plant, ECHCG” value in assay [3] and in assay [11] was 4 (4=61-80%) in each case. The results for the “percentage damage caused to the plant, ZEAMX” value in the assay on ZEAMX [4] and in the assay on ZEAMX [10] were 2 (2=21-40%) and 1 (1=10-20%), respectively. Besides, the “percentage damage caused to the plant, ABUTH” value with ABUTH [5] and with ABUTH [12] was 1 (1=10-20%) throughout. For the same molecule, the “percentage damage caused to the plant, AMARE” value in assay [6] is recorded as 0 (0=0%); in assay [8], 1 (1=10-20%).

On to `CCOC(=O)c1nn(-c2ccc(OC(F)(F)F)cc2)c2cccc(C(C)=O)c2c1=O` [Compound P30, ethyl 5-acetyl-4-oxo-1-[4-(trifluoromethoxy)phenyl] cinnoline-3-carboxylate], for which the “percentage damage caused to the plant, IPOHE” value in [1] was 1 (1=10-20%); in assay [9], 2 (2=21-40%). The “percentage damage caused to the plant, SETFA” value with Setaria faberi (SETFA) [2] is on record as 5 (5=81-100%); in the assay on Setaria faberi (SETFA) [7], 4 (4=61-80%). In addition, the “percentage damage caused to the plant, ECHCG” value in assay [3] and in assay [11] was 4 (4=61-80%) in each case. Also, the “percentage damage caused to the plant, ZEAMX” value in the assay on ZEAMX [4] was 3 (3=41-60%); with ZEAMX [10], 4 (4=61-80%). For the same molecule, the “percentage damage caused to the plant, ABUTH” value with ABUTH [5] was 2 (2=21-40%); in the assay with ABUTH [12], 3 (3=41-60%). Besides, the “percentage damage caused to the plant, AMARE” value in assay [6] and in [8] was 1 (1=10-20%) each time.

As to `CCOC(=O)c1nn(-c2ccc(OC(F)(F)F)cc2)c2cccc(-n3cc(C(F)(F)F)cn3)c2c1=O` [Compound P31, ethyl 4-oxo-1-[4-(trifluoromethoxy)phenyl]-5-[4-(trifluoromethyl)pyrazol-1-yl]cinnoline-3-carboxylate], the “percentage damage caused to the plant, IPOHE” value in assay [1] and in [9] was 0 (0=0%) each time. Besides, the “percentage damage caused to the plant, SETFA” value in the assay on Setaria faberi (SETFA) [2] and in the assay with Setaria faberi (SETFA) [7] was 0 (0=0%) in each case. Further, the “percentage damage caused to the plant, ECHCG” value in [3] and in [11] was 0 (0=0%) throughout. The “percentage damage caused to the plant, ZEAMX” value with ZEAMX [4] and in the assay on ZEAMX [10] was 0 (0=0%) each time. The “percentage damage caused to the plant, ABUTH” value in the assay on ABUTH [5] and in the assay on ABUTH [12] was 0 (0=0%) in each case. The “percentage damage caused to the plant, AMARE” value in assay [6] and in assay [8] was 0 (0=0%) each time.

Take `CCOC(=O)c1nn(-c2ccc(OC(F)(F)F)cc2)c2cccc(-n3cc(Cl)cn3)c2c1=O` [Compound P32, ethyl 5-(4-chloropyrazol-1-yl)-4-oxo-1-[4-(trifluoromethoxy)phenyl] cinnoline-3-carboxylate]: the entries for the “percentage damage caused to the plant, IPOHE” value in assay [1] and in [9] were 0 (0=0%) and 1 (1=10-20%), respectively. The “percentage damage caused to the plant, SETFA” value in the assay with Setaria faberi (SETFA) [2] is reported as 4 (4=61-80%); in the assay on Setaria faberi (SETFA) [7], 3 (3=41-60%). Besides, the “percentage damage caused to the plant, ECHCG” value is given as 3 (3=41-60%) in [3] and 4 (4=61-80%) in assay [11]. Also, the “percentage damage caused to the plant, ZEAMX” value was 1 (1=10-20%) in the assay with ZEAMX [4] and 2 (2=21-40%) in the assay with ZEAMX [10]. Also, the “percentage damage caused to the plant, ABUTH” value with ABUTH [5] is reported as 2 (2=21-40%); in the assay with ABUTH [12], 1 (1=10-20%). In addition, the “percentage damage caused to the plant, AMARE” value is given as 1 (1=10-20%) in assay [6] and 2 (2=21-40%) in assay [8].

`CCOC(=O)c1nn(-c2ccc(OC(F)(F)F)cc2)c2cccc(-n3cc(C(F)(F)F)nn3)c2c1=O` [Compound P33, ethyl 4-oxo-1-[4-(trifluoromethoxy)phenyl]-5-[4-(trifluoromethyl)triazol-1-yl]cinnoline-3-carboxylate]: the “percentage damage caused to the plant, IPOHE” value in assay [1] and in assay [9] was 0 (0=0%) in each case. Moreover, the “percentage damage caused to the plant, SETFA” value in the assay with Setaria faberi (SETFA) [2] and in the assay with Setaria faberi (SETFA) [7] was 0 (0=0%) each time. Besides, the “percentage damage caused to the plant, ECHCG” value in assay [3] and in assay [11] was 0 (0=0%) throughout. In addition, the “percentage damage caused to the plant, ZEAMX” value is on record as 0 (0=0%) in the assay on ZEAMX [4] and 1 (1=10-20%) in the assay on ZEAMX [10]. The “percentage damage caused to the plant, ABUTH” value in the assay with ABUTH [5] and in the assay on ABUTH [12] was 0 (0=0%) each time. The “percentage damage caused to the plant, AMARE” value in assay [6] and in assay [8] was 0 (0=0%) in each case.

On to `CCOC(=O)c1nn(-c2ccc(OC(F)(F)F)cc2)c2cccc(-n3ncc(C(F)(F)F)n3)c2c1=O` [Compound P34, ethyl 4-oxo-1-[4-(trifluoromethoxy)phenyl]-5-[4-(trifluoromethyl)triazol-2-yl]cinnoline-3-carboxylate], for which the “percentage damage caused to the plant, IPOHE” value in assay [1] and in assay [9] was 0 (0=0%) throughout. The “percentage damage caused to the plant, SETFA” value with Setaria faberi (SETFA) [2] and in the assay with Setaria faberi (SETFA) [7] was 0 (0=0%) throughout. For the same molecule, the “percentage damage caused to the plant, ECHCG” value in [3] and in [11] was 0 (0=0%) in each case. The “percentage damage caused to the plant, ZEAMX” value in the assay on ZEAMX [4] is 0 (0=0%); with ZEAMX [10], 2 (2=21-40%). Further, the “percentage damage caused to the plant, ABUTH” value in the assay with ABUTH [5] and in the assay with ABUTH [12] was 0 (0=0%) in each case. For the same molecule, the “percentage damage caused to the plant, AMARE” value in assay [6] and in assay [8] was 0 (0=0%) each time.

`CCOC(=O)c1nn(-c2ccc(OC(F)(F)F)cc2)c2cccc(CC#N)c2c1=O` [Compound P35, ethyl 5-(cyanomethyl)-4-oxo-1-[4-(trifluoromethoxy)phenyl] cinnoline-3-carboxylate]: the “percentage damage caused to the plant, IPOHE” value in [1] and in assay [9] was 0 (0=0%) in each case. Also, the “percentage damage caused to the plant, SETFA” value with Setaria faberi (SETFA) [2] is given as 5 (5=81-100%); with Setaria faberi (SETFA) [7] it was 4 (4=61-80%). Besides, the results for the “percentage damage caused to the plant, ECHCG” value in assay [3] and in assay [11] were 4 (4=61-80%) and 5 (5=81-100%), respectively. The figures for the “percentage damage caused to the plant, ZEAMX” value in the assay with ZEAMX [4] and in the assay with ZEAMX [10] were 3 (3=41-60%) and 2 (2=21-40%), respectively. Besides, the “percentage damage caused to the plant, ABUTH” value in the assay with ABUTH [5] and with ABUTH [12] was 0 (0=0%) each time. Besides, the figures for the “percentage damage caused to the plant, AMARE” value in assay [6] and in assay [8] were 0 (0=0%) and 1 (1=10-20%), respectively.

For the molecule `CCOC(=O)c1nn(-c2ccc(OC(F)(F)F)cc2)c2cccc(C(F)F)c2c1=O` [Compound P36, ethyl 5-(difluoromethyl)-4-oxo-1-[4-(trifluoromethoxy)phenyl] cinnoline-3-carboxylate], the “percentage damage caused to the plant, IPOHE” value in [1] was 1 (1=10-20%); in assay [9], 0 (0=0%). In addition, the “percentage damage caused to the plant, SETFA” value is given as 2 (2=21-40%) with Setaria faberi (SETFA) [2] and 1 (1=10-20%) in the assay with Setaria faberi (SETFA) [7]. Further, the “percentage damage caused to the plant, ECHCG” value in [3] and in assay [11] was 0 (0=0%) throughout. The “percentage damage caused to the plant, ZEAMX” value with ZEAMX [4] and in the assay on ZEAMX [10] was 0 (0=0%) each time. Moreover, the “percentage damage caused to the plant, ABUTH” value in the assay on ABUTH [5] is given as 1 (1=10-20%); with ABUTH [12], 0 (0=0%). Also, the “percentage damage caused to the plant, AMARE” value in [6] and in assay [8] was 0 (0=0%) in each case.

Take `O=C(O)c1nn(-c2ccc(OC(F)(F)F)cc2)c2cccc(C(F)F)c2c1=O` [Compound P37, 5-(difluoromethyl)-4-oxo-1-[4-(trifluoromethoxy)phenyl] cinnoline-3-carboxylic acid]: the “percentage damage caused to the plant, IPOHE” value in assay [1] was 0 (0=0%); in assay [9], 1 (1=10-20%). In addition, the “percentage damage caused to the plant, SETFA” value is on record as 0 (0=0%) in the assay with Setaria faberi (SETFA) [2] and 2 (2=21-40%) in the assay with Setaria faberi (SETFA) [7]. The “percentage damage caused to the plant, ECHCG” value in assay [3] is 2 (2=21-40%); in [11], 0 (0=0%). For the same molecule, the “percentage damage caused to the plant, ZEAMX” value in the assay on ZEAMX [4] was 1 (1=10-20%); in the assay on ZEAMX [10] it was 0 (0=0%). Also, the “percentage damage caused to the plant, ABUTH” value in the assay with ABUTH [5] and in the assay on ABUTH [12] was 0 (0=0%) throughout. Further, the “percentage damage caused to the plant, AMARE” value in assay [6] is listed as 1 (1=10-20%); in [8], 0 (0=0%).
